Read-outs that look alike come from different tables or passages of the source.
Assays:
[1] = tested on: AP-1060 (ETV6-NTRK3); assay: Cell viability assay; details: read-out: IC50 in cell proliferation assay
[2] = tested on: 134 cancer cell lines
[3] = tested on: 134 cancer cell lines; assay: Cell viability assay (ATPlite, 72 hours), IC50 on cancer cell line panel

In the case of `CC(=O)Nc1cccc(-n2c(=O)n(C3CC3)c(=O)c3c(Nc4ccc(I)cc4F)n(C)c(=O)c(C)c32)c1` [trametinib], the IC50 [1] is reported as 291 nM, the IC50 [2] is reported as 76 nM and the IC50 ([3]; HEC-6, read-out: IC50 in cell proliferation assay, HEC-6 cell line (EGFR p.A289V)) is reported as > 31600 nM. It also gave an IC50 ([3]; Homo sapiens, 769-P, read-out: IC50 in cell proliferation assay, cell line 769-P) of 95 nM, an IC50 ([3]; Homo sapiens, 786-0, read-out: IC50 in cell proliferation assay, cell line 786-O) of 42 nM and an IC50 ([3]; Homo sapiens, A 172, read-out: IC50 in cell proliferation assay, cell line A-172) of 235 nM. The IC50 ([3]; Homo sapiens, A204, read-out: IC50 in cell proliferation assay, cell line A-204) was 1230 nM, the IC50 ([3]; Homo sapiens, A498, read-out: IC50 in cell proliferation assay, cell line A-498) was 13800 nM and the IC50 ([3]; Homo sapiens, A549, read-out: IC50 in cell proliferation assay, cell line A-549) was 8 nM. For the same molecule, the IC50 ([3]; Homo sapiens, A704, read-out: IC50 in cell proliferation assay, cell line A-704) was > 28200 nM, the IC50 ([3]; Homo sapiens, A-375, read-out: IC50 in cell proliferation assay, cell line A-375 (BRAF p.V600E)) was 5 nM and the IC50 ([3]; Homo sapiens, A-427, read-out: IC50 in cell proliferation assay, cell line A-427) was 2.13 nM. For the same molecule, the IC50 ([3]; Homo sapiens, ACHN, read-out: IC50 in cell proliferation assay, cell line ACHN) was 6 nM, the IC50 ([3]; Homo sapiens, AN3-CA, read-out: IC50 in cell proliferation assay, cell line AN3-CA (FGFR2 p.N549K)) was 50 nM and the IC50 ([3]; Homo sapiens, ASPC1, read-out: IC50 in cell proliferation assay, cell line AsPC-1) was 14 nM. For the same molecule, the IC50 ([3]; Homo sapiens, AU565, read-out: IC50 in cell proliferation assay, cell line AU565 (ERBB2 amplification)) was > 28200 nM, the IC50 ([3]; Homo sapiens, BT-20, read-out: IC50 in cell proliferation assay, cell line BT-20) was > 28200 nM and the IC50 ([3]; Homo sapiens, BT-474, read-out: IC50 in cell proliferation assay, cell line BT-474 (ERBB2 amplification)) was > 31600 nM. The IC50 ([3]; Homo sapiens, BT-549, read-out: IC50 in cell proliferation assay, cell line BT-549) was 314 nM, the IC50 ([3]; Homo sapiens, BXPC-3, read-out: IC50 in cell proliferation assay, cell line BxPC-3) was 38 nM and the IC50 ([3]; Homo sapiens, C-33-A, read-out: IC50 in cell proliferation assay, cell line C-33 A) was 4.42 nM. The IC50 ([3]; Homo sapiens, CAL-27, read-out: IC50 in cell proliferation assay, cell line CAL-27) was 11 nM, the IC50 ([3]; Homo sapiens, CCF-STTG1, read-out: IC50 in cell proliferation assay, cell line CCF-STTG1) was > 28200 nM and the IC50 ([3]; Homo sapiens, CCRF-CEM, read-out: IC50 in cell proliferation assay, cell line CCRF-CEM) was > 28200 nM. For the same molecule, the IC50 ([3]; Homo sapiens, COLO 205, read-out: IC50 in cell proliferation assay, cell line COLO 205 (BRAF p.V600E)) was 4 nM, the IC50 ([3]; Homo sapiens, COLO-829, read-out: IC50 in cell proliferation assay, cell line COLO 829 (BRAF p.V600E)) was 16 nM and the IC50 ([3]; Homo sapiens, DLD-1, read-out: IC50 in cell proliferation assay, cell line DLD-1) was 507 nM. For the same molecule, the IC50 ([3]; Homo sapiens, DU-4475, read-out: IC50 in cell proliferation assay, cell line DU4475 (BRAF p.V600E)) was 10 nM, the IC50 ([3]; Homo sapiens, Daoy, read-out: IC50 in cell proliferation assay, cell line Daoy) was 427 nM and the IC50 ([3]; Homo sapiens, DoTc2-4510, read-out: IC50 in cell proliferation assay, cell line DoTc2 4510) was 8 nM. The IC50 ([3]; Homo sapiens, EOL1, read-out: IC50 in cell proliferation assay, cell line EoL-1 (FIP1L1-PDGFRA)) was 8 nM, the IC50 ([3]; Homo sapiens, FaDu, read-out: IC50 in cell proliferation assay, cell line FaDu) was 19 nM and the IC50 ([3]; Homo sapiens, G-361, read-out: IC50 in cell proliferation assay, cell line G-361 (BRAF p.V600E)) was 5.46 nM. The IC50 ([3]; Homo sapiens, HCC827, read-out: IC50 in cell proliferation assay, cell line HCC827 (EGFR exon19del)) was 151 nM, the IC50 ([3]; Homo sapiens, HCC4006, read-out: IC50 in cell proliferation assay, cell line HCC4006 (EGFR exon19del)) was 808 nM and the IC50 ([3]; Homo sapiens, HCT-15, read-out: IC50 in cell proliferation assay, cell line HCT 15) was 1740 nM. It also gave an IC50 ([3]; Homo sapiens, HCT-116, read-out: IC50 in cell proliferation assay, cell line HCT 116) of 29 nM, an IC50 ([3]; Homo sapiens, HEC-1, read-out: IC50 in cell proliferation assay, HEC-1 cell line) of 330 nM and an IC50 ([3]; Homo sapiens, HEC-1B, read-out: IC50 in cell proliferation assay, HEC-1-B cell line (EGFR p.A864V)) of 6.36 nM. For the same molecule, the IC50 ([3]; Homo sapiens, HL-60, read-out: IC50 in cell proliferation assay, HL-60 cell line) was 1 nM, the IC50 ([3]; Homo sapiens, HT, read-out: IC50 in cell proliferation assay, HT cell line) was > 28200 nM and the IC50 ([3]; Homo sapiens, HT-1080, read-out: IC50 in cell proliferation assay, HT-1080 cell line) was 28 nM. The IC50 ([3]; Homo sapiens, Hs746T, read-out: IC50 in cell proliferation assay, Hs 746.T cell line (MET exon14skip + amplification)) was 82 nM, the IC50 ([3]; Homo sapiens, Hs-578T, read-out: IC50 in cell proliferation assay, Hs 578T cell line) was 211 nM and the IC50 ([3]; Homo sapiens, HuTu80, read-out: IC50 in cell proliferation assay, HuTu 80 cell line) was 129 nM. For the same molecule, the IC50 ([3]; Homo sapiens, J82, read-out: IC50 in cell proliferation assay, J82 cell line) was > 28200 nM, the IC50 ([3]; Homo sapiens, Jurkat E6.1, read-out: IC50 in cell proliferation assay, Jurkat E6.1 cell line) was > 28200 nM and the IC50 ([3]; Homo sapiens, K562, read-out: IC50 in cell proliferation assay, K-562 cell line) was 22 nM. For the same molecule, the IC50 ([3]; Homo sapiens, KATO III, read-out: IC50 in cell proliferation assay, KATO III cell line (FGFR2 amplification)) was 142 nM, the IC50 ([3]; Homo sapiens, KG-1, read-out: IC50 in cell proliferation assay, KG-1 cell line (FGFR1OP2-FGFR1)) was 9 nM and the IC50 ([3]; Homo sapiens, KLE, read-out: IC50 in cell proliferation assay, KLE cell line) was > 28200 nM. The IC50 ([3]; Homo sapiens, KMS-11, read-out: IC50 in cell proliferation assay, KMS-11 cell line (FGFR3 p.Y373C)) was > 31600 nM, the IC50 ([3]; Homo sapiens, KU812, read-out: IC50 in cell proliferation assay, Ku812 cell line) was 13 nM and the IC50 ([3]; Homo sapiens, Kasumi 1, read-out: IC50 in cell proliferation assay, Kasumi-1 cell line (KIT p.N822K)) was 29 nM. For the same molecule, the IC50 ([3]; Homo sapiens, LC-2-ad, read-out: IC50 in cell proliferation assay, LC-2/ad cell line (CCDC6-RET)) was 167 nM, the IC50 ([3]; Homo sapiens, LNCaP-Clone-FGC, read-out: IC50 in cell proliferation assay, LNCaP clone FGC cell line) was > 28200 nM and the IC50 ([3]; Homo sapiens, LS174T, read-out: IC50 in cell proliferation assay, LS174T cell line) was 30 nM. The IC50 ([3]; Homo sapiens, LS-411N, read-out: IC50 in cell proliferation assay, LS411N cell line (BRAF p.V600E)) was 9 nM, the IC50 ([3]; Homo sapiens, LoVo, read-out: IC50 in cell proliferation assay, LoVo cell line) was 32 nM and the IC50 ([3]; Homo sapiens, MCF7, read-out: IC50 in cell proliferation assay, MCF-7 cell line) was > 28200 nM. It also gave an IC50 ([3]; Homo sapiens, MDA-MB-231, read-out: IC50 in cell proliferation assay, MDA-MB-231 cell line) of 44 nM, an IC50 ([3]; Homo sapiens, MDA-MB-453, read-out: IC50 in cell proliferation assay, MDA-MB-453 cell line) of 270 nM and an IC50 ([3]; Homo sapiens, MDA-MB-468, read-out: IC50 in cell proliferation assay, MDA-MB-468 cell line) of 151 nM. The IC50 ([3]; Homo sapiens, MG-63, read-out: IC50 in cell proliferation assay, MG-63 cell line) was 257 nM, the IC50 ([3]; Homo sapiens, MIA PaCa-2, read-out: IC50 in cell proliferation assay, MIA PaCa-2 cell line) was 33 nM and the IC50 ([3]; Homo sapiens, MKN-45, read-out: IC50 in cell proliferation assay, MKN45 cell line (MET amplification)) was 83 nM. The IC50 ([3]; Homo sapiens, MOLM-13, read-out: IC50 in cell proliferation assay, MOLM-13 cell line (FLT3 ITD)) was 34 nM, the IC50 ([3]; Homo sapiens, MOLT-4, read-out: IC50 in cell proliferation assay, MOLT-4 cell line) was 27600 nM and the IC50 ([3]; Homo sapiens, MV4-11, read-out: IC50 in cell proliferation assay, MV4-11 cell line (FLT3 ITD)) was 22 nM.
